Compound `CCOc1ncc(C)cc1Nc1cc2c3c(c1)[C@@H]1CNCC[C@@H]1N3CCOC2` [Example 173, (7bR,11aS)-N-(2-Ethoxy-5-methyl-3-pyridinyl)-1,2,7b,8,9,10,11,11a-octahydro-4H-[1,4]oxazepino[6,5,4-hi]pyrido[4,3b]indole-6-amine] had a melting point of 59 to 68 °C.
Turning to `COc1ncc(C)cc1Nc1cc2c3c(c1)[C@@H]1CNCC[C@@H]1N3CCOC2` [Example 172, (7bR,11aS)-N-(2-Methoxy-5-methyl-3-pyridinyl)-1,2,7b,8,9,10,11,11a-octahydro-4H-[1,4]oxazepino[6,5,4-hi]pyrido[4,3-b]indole-6-amine], the melting point is 122 to 124 °C.

For the origin of these results see US6849619B2, “Substituted pyridoindoles as serotonin agonists and antagonists” (Bristol-Myers Squibb Company, priority 2000, dated 2005).
